Experimental findings from patent US20240016860A1, “BACILLUS COAGULANS FOR IMPROVING CONSTIPATION AND APPLICATION THEREOF” (Thankcome Biological Science and Technology (Suzhou) Co., …, priority 2022, published 2024) are described below.

Holding throughout (type): in vivo, Kunming mice
One experiment deals with nNOS mRNA. As to the kind of experiment: RT-qPCR mRNA expression in small intestine: nNOS. To be noted: 2^−ΔΔCt, actin reference, Bis group: bisacodyl 100 mg/kg per day. The method, then: (§1) After a week of adaptive culture, 40 mice are randomly divided into 5 groups, with 8 mice in each group, namely the group of normal control (NC), group of model (GM), BC69 low-dose group (BC-L), BC69 high-dose group (BC-H) and bisacodyl drug treatment group (Bis). […]
(§2) Messenger ribonucleic acid (mRNA) expressions of COX-2, c-kit, NFκB, iNOS, eNOS, nNOS and SCF are detected by RT-qPCR, and total RNA is extracted and complementary deoxyribonucleic acid (cDNA) reverse transcription is carried out according to the instructions of RNA extraction kit and cDNA reverse transcription kit; then a microspectrophotometer is used to identify the purity of the RNA at 260/280 nanometers (nm). Actin (actin) is used as a standardized internal reference for RT-qPCR analysis, and final RT-qPCR product expression is determined using the 2^−ΔΔCt method.
(Quantitative PCR measures a nucleic acid by following its amplification.)

In the next experiment the test system is iNOS mRNA. Description: RT-qPCR mRNA expression in small intestine: iNOS. Conditions: 2^−ΔΔCt, actin reference, Bis group: bisacodyl 100 mg/kg per day. How it is done:
as §1, §2

The next experiment relates to SCF mRNA. As to the kind of experiment: RT-qPCR mRNA expression in small intestine: SCF. To be noted: 2^−ΔΔCt, actin reference, Bis group: bisacodyl 100 mg/kg per day. The method, then:
as §1, §2

The next experiment concerns COX-2 mRNA. As to the kind of experiment: RT-qPCR mRNA expression in small intestine: COX-2. Conditions: 2^−ΔΔCt, actin reference, Bis group: bisacodyl 100 mg/kg per day. The method, then: as §1, §2
In a further experiment the test system is endothelin-1 (ET-1). As to the kind of experiment: Serum gastrointestinal hormone ELISA: ET-1. To be noted: Bis group: bisacodyl 100 mg/kg per day. How it is done: (§3) After a week of adaptive culture, 40 mice are randomly divided into 5 groups, with 8 mice in each group, namely the group of normal control (NC), group of model (GM), BC69 low-dose group (BC-L), BC69 high-dose group (BC-H) and bisacodyl drug treatment group (Bis). During the experiment, saline gavage of 0.25 mL is administered daily to NC and GM mice; from day 1 to day 4, all mice except NC mice are additionally gavaged with loperamide hydrochloride suspension (1 mg/mL) 0.25 mL twice daily (at 9:00 a.m. and 2:00 p.m. respectively) to induce a functional constipation model of mice; after gavage on day 4, all mice are fasted from food but not water for 16 h; from day 5 to day 11, […] are gavaged with Bacillus coagulans BC suspension 0.25 mL every day, where the concentrations are 1.0×10^8 colony-forming units per milliliter (CFU/mL) and 4.0×10^9 CFU/mL respectively; mice of group Bis are gavaged with bisacodyl aqueous solution at 100 milligrams per kilogram (mg/kg) per day; after the completion of gavage on day 11, all groups of mice are fasted from food but not water for 16 h. […]
(§4) The contents of endothelin (ET), gastrin (Gas), motilin (MTL), substance P (SP), somatostatin (SS) and vasoactive intestinal peptide (VIP) in serum are determined according to the instructions of the enzyme-linked immuno sorbent assay (ELISA) kit.

Experiment [1] deals with vasoactive intestinal peptide (VIP). Description: Serum gastrointestinal hormone ELISA: VIP. To be noted: Bis group: bisacodyl 100 mg/kg per day. The method, then: as §3, §4
A further experiment deals with gastrin (Gas). Description: Serum gastrointestinal hormone ELISA: Gas. Conditions: Bis group: bisacodyl 100 mg/kg per day. How it is done: as §3, §4
A general note: In an ELISA, binding on a coated surface is turned into a signal by an enzyme label.

The test system of a further experiment is somatostatin (SS). Description: Serum gastrointestinal hormone ELISA: SS. To be noted: Bis group: bisacodyl 100 mg/kg per day. How it is done: as §3, §4
Another experiment deals with c-kit mRNA. Description: RT-qPCR mRNA expression in small intestine: c-kit. Conditions: 2^−ΔΔCt, actin reference, Bis group: bisacodyl 100 mg/kg per day. The method, then: as §1, §2
The next experiment deals with NFκB mRNA. As to the kind of experiment: RT-qPCR mRNA expression in small intestine: NFκB. To be noted: 2^−ΔΔCt, actin reference, Bis group: bisacodyl 100 mg/kg per day. The method, then: as §1, §2
The next experiment concerns substance P (SP). Description: Serum gastrointestinal hormone ELISA: SP. Conditions: Bis group: bisacodyl 100 mg/kg per day. How it is done: as §3, §4
In another experiment the test system is eNOS mRNA. Description: RT-qPCR mRNA expression in small intestine: eNOS. Conditions: 2^−ΔΔCt, actin reference, Bis group: bisacodyl 100 mg/kg per day. The method, then: as §1, §2
The subject of another experiment is motilin (MTL). Description: Serum gastrointestinal hormone ELISA: MTL. To be noted: Bis group: bisacodyl 100 mg/kg per day. How it is done: as §3, §4

With `CC(=O)Oc1ccc(C(c2ccc(OC(C)=O)cc2)c2ccccn2)cc1` [Bis, bisacodyl], the “mRNA expression levels nNos” value with nNOS mRNA was found to be 0.04 ± 0.00. Moreover, the “mRNA expression levels iNos” value in the experiment with iNOS mRNA worked out at 0.04 ± 0.00. For the same compound, in the experiment on SCF mRNA, the “mRNA expression levels SCF” value is listed as 3.66 ± 0.62. For the same compound, in the experiment with COX-2 mRNA, the “mRNA expression levels COX-2” value came to 0.43 ± 0.05. Also, the “ET-1” value with endothelin-1 (ET-1) is 21.44 ± 1.28 pg/mL. The “VIP” value in [1] was found to be 36.13 ± 2.37 pg/mL. Besides, the “Gas” value in the experiment on gastrin (Gas) is 10.09 ± 0.69 pg/mL. Also, the “SS” value in the experiment with somatostatin (SS) is on record as 28.09 ± 1.89 pg/mL. Also, the “mRNA expression levels c-kit” value with c-kit mRNA turned out to be 0.08 ± 0.01. Also, the “mRNA expression levels NFκB” value with NFκB mRNA was 2.21 ± 0.84. The “SP” value in the experiment with substance P (SP) is reported as 51.60 ± 3.48 pg/mL. Further, the “mRNA expression levels eNos” value with eNOS mRNA amounted to 0.03 ± 0.00. Moreover, the “MTL” value in the experiment with motilin (MTL) worked out at 57.89 ± 2.65 pg/mL.
